Results: patent US11731985B2, “Compositions and methods for treating cancer” (Hb Therapeutics Inc., priority 2018, dated 2023)
Where two headings read alike, the source gives them in different places.

System: LN229 cells
Assay: Cell viability assay, LN229 cells
Type: cell-based, human
Details: read-out: Inhibition of Cancer Cell Growth (IC50)
Experimental: Each of the compounds was used to treat the cancer LN229 cells and examined first by western and dot blot assays for the degradation of SUMO1 protein and then by cell viability assay for the IC50 values of anticancer activity.
LN229 cell were treated with a series of dilutions of CPD1 and examined by cell viability assay for cell growth inhibition (FIG. 2B). […] Therefore, CPD1 acts as the degrader of SUMO1 protein and inhibitor of SUMO1 conjugation in cancer cells.

[1] = Homo sapiens, LN-229, LN229 cells

O=C(Nc1ccc(Cl)c(Cl)c1)Nc1nc2ccc([N+](=O)[O-])cc2s1 [Compound 2] showed an IC50 [1] of at most 5 µM.

O=C(Nc1cccc(Cl)c1)Nc1nc2ccc([N+](=O)[O-])cc2s1 [Compound 3] gave an IC50 (LN229 cells) of at most 5 µM.

O=C(Nc1cccc([N+](=O)[O-])c1)Nc1nc2ccc(Cl)cc2s1 [Compound 4] was tested, and the IC50 [1] was at most 5 µM.

With O=C(Nc1ccc(Cl)cc1)Nc1nc2ccc([N+](=O)[O-])cc2s1 [Compound 5] the IC50 (LN229 cells) was at most 5 µM.

O=C(Nc1ccc([N+](=O)[O-])cc1)Nc1nc2ccc(Cl)cc2s1 [Compound 6] gave an IC50 [1] of at most 5 µM.

Molecule O=C(Nc1ccc(Cl)cc1)Nc1nc2ccccc2s1 [Compound 7] has an IC50 [1] of over 20 µM.

For O=C(Nc1nc2ccccc2s1)Nc1ccccc1Cl [Compound 8], the IC50 [1] was over 20 µM.

Work on O=C(Nc1nc2ccccc2s1)Nc1ccc([N+](=O)[O-])cc1Cl [Compound 9] yielded an IC50 [1] of over 20 µM.

O=C(Nc1cccc([N+](=O)[O-])c1)Nc1nc2ccc(F)cc2s1 [Compound 10] showed an IC50 [1] of at most 5 µM.

With O=C(Nc1ccccc1)Nc1nc2ccccc2s1 [Compound 11] the IC50 [1] was over 20 µM.

O=C(Nc1cccc([N+](=O)[O-])c1)Nc1nc2c(Cl)cccc2s1 [Compound 12] showed an IC50 [1] of at most 20 µM.

N#Cc1ccc(NC(=O)Nc2nc3ccc(C(F)(F)F)cc3s2)cc1C#N [Compound 13] was tested, and the IC50 [1] was over 20 µM.

O=C(Nc1nc2ccc([N+](=O)[O-])cc2s1)Nc1c(Cl)cccc1Cl [Compound 14] showed an IC50 [1] of at most 20 µM.

O=C(Nc1ccc(Cl)cc1)Nc1nc2cccc([N+](=O)[O-])c2s1 [Compound 15] showed an IC50 [1] of over 20 µM.

O=C(Nc1nc2cccc([N+](=O)[O-])c2s1)Nc1ccc(Cl)cc1F [Compound 16] showed an IC50 [1] of over 20 µM.

O=C(Nc1ccc(F)c([N+](=O)[O-])c1)Nc1nc2c(Cl)cccc2s1 [Compound 17] showed an IC50 [1] of over 20 µM.

O=C(Nc1ccc(Cl)cc1)Nc1nc2ccc([N+](=O)[O-])cc2s1 [Compound 18] showed an IC50 (LN229 cells) of over 20 µM.

Work on O=C(Nc1cccc(Cl)c1)Nc1nc2ccc([N+](=O)[O-])cc2s1 [Compound 19] yielded an IC50 (LN229 cells) of over 20 µM.

Work on CS(=O)(=O)c1ccc2nc(NC(=O)Nc3cccc(Cl)c3)sc2c1 [Compound 20] yielded an IC50 [1] of over 20 µM.

With O=C(Nc1cccc(Cl)c1)Nc1nc2ccc(Br)cc2s1 [Compound 21] the IC50 [1] was over 20 µM.

With Cc1nc2ccc(NC(=O)Nc3cccc([N+](=O)[O-])c3)cc2s1 [Compound 22] the IC50 [1] was at most 20 µM.

For N#Cc1ccc2nc(NC(=O)Nc3cccc([N+](=O)[O-])c3)sc2c1 [Compound 23], the IC50 [1] was at most 5 µM.

O=C(Nc1nc2ccc([N+](=O)[O-])cc2s1)c1ccc(F)cc1 [Compound 25] showed an IC50 [1] of over 20 µM.

With O=C(Cc1ccc(Cl)cc1)Nc1nc2ccc([N+](=O)[O-])cc2s1 [Compound 26, 2-(4-chlorophenyl)-N-(6-nitro-1,3-benzothiazol-2-yl)acetamide] the IC50 [1] was at most 20 µM.

O=C(Nc1cccc(C(=O)O)c1)Nc1nc2ccc([N+](=O)[O-])cc2s1 [Compound 27] gave an IC50 [1] of over 20 µM.

Molecule COC(=O)c1ccc2nc(NC(=O)Nc3cccc([N+](=O)[O-])c3)sc2c1 [Compound 28] has an IC50 [1] of at most 20 µM.

O=C1N(c2cccc(Cl)c2)CCCN1c1nc2ccc([N+](=O)[O-])cc2s1 [Compound 29] was tested, and the IC50 [1] was over 20 µM.

N#Cc1ccc2nc(NC(=O)Nc3cccc(Br)c3)sc2c1 [Compound 31, 1-(3-bromophenyl)-3-(6-cyano-1,3-benzothiazol-2-yl)urea] showed an IC50 [1] of at most 5 µM.

Molecule N#Cc1ccc2nc(NC(=O)Nc3cccc(-c4ccc(F)cc4)c3)sc2c1 [Compound 32, 1-(6-cyano-1,3-benzothiazol-2-yl)-3-[3-(4-fluorophenyl)phenyl]urea] has an IC50 [1] of at most 5 µM.

With COc1ccc(-c2cccc(NC(=O)Nc3nc4ccc(C#N)cc4s3)c2)cc1 [Compound 33] the IC50 [1] was at most 5 µM.

Cc1ccc(-c2cccc(NC(=O)Nc3nc4ccc(C#N)cc4s3)c2)cc1 [Compound 34] showed an IC50 [1] of at most 5 µM.

For Cc1ccc(NC(=O)Nc2nc3ccc(C#N)cc3s2)nc1 [Compound 35], the IC50 [1] was over 20 µM.

N#Cc1ccc2nc(NC(=O)Nc3ccc(Br)cc3)sc2c1 [Compound 36] was tested, and the IC50 [1] was at most 5 µM.

Molecule N#Cc1ccc2nc(NC(=O)Nc3cc(Cl)cc(Cl)c3)sc2c1 [Compound 37] has an IC50 [1] of at most 5 µM.

Work on COc1cccc(NC(=O)Nc2nc3ccc(C#N)cc3s2)c1 [Compound 38] yielded an IC50 [1] of at most 5 µM.

With CCc1ccc(NC(=O)Nc2nc3ccc(C#N)cc3s2)cc1 [Compound 39] the IC50 (LN229 cells) was at most 5 µM.

CC(C)(C)c1ccc(NC(=O)Nc2nc3ccc(C#N)cc3s2)cc1 [Compound 40] was tested, and the IC50 [1] was over 20 µM.

Molecule N#Cc1ccc2nc(NC(=O)Nc3ccc(Cl)c(Cl)c3)sc2c1 [Compound 41] has an IC50 [1] of at most 5 µM.

N#Cc1cccc(NC(=O)Nc2nc3ccc(Cl)cc3s2)c1 [Compound 42] was tested, and the IC50 [1] was at most 5 µM.

Work on COc1ccc2nc(NC(=O)Nc3cccc(C#N)c3)sc2c1 [Compound 43] yielded an IC50 [1] of at most 20 µM.

Cc1ccc2nc(NC(=O)Nc3cccc(C#N)c3)sc2c1 [Compound 44] was tested, and the IC50 [1] was over 20 µM.

In the case of N#Cc1ccc2nc(NC(=O)Nc3ccccc3)sc2c1 [Compound 45], the IC50 [1] is reported as at most 5 µM.

Molecule N#Cc1cccc(NC(=O)NC2Cc3ccccc3C2)c1 [Compound 46] has an IC50 [1] of over 20 µM.

In the case of N#Cc1cccc(NC(=O)N2CCc3ccccc3C2)c1 [Compound 47], the IC50 [1] is reported as over 20 µM.

N#Cc1cccc(NC(=O)Nc2nc3ccccc3s2)c1 [Compound 48] gave an IC50 [1] of at most 20 µM.

For CC(C)(C)OC(=O)N1CCc2nc(NC(=O)Nc3cccc(C#N)c3)sc2C1 [Compound 49], the IC50 [1] was at most 20 µM.

For N#Cc1cccc(NC(=O)Nc2nc3c(s2)CNCC3)c1 [Compound 50], the IC50 [1] was at most 20 µM.

N#Cc1ccc2nc(NC(=O)Nc3ccccc3C(F)(F)F)sc2c1 [Compound 51] showed an IC50 [1] of at most 20 µM.

CN1CCc2nc(NC(=O)Nc3cccc(C#N)c3)sc2C1 [Compound 52] gave an IC50 [1] of over 20 µM.

CCOC(=O)c1ccc2nc(NC(=O)Nc3cccc(C#N)c3)sc2c1 [Compound 53] showed an IC50 [1] of at most 5 µM.

With CC(C(=O)Nc1nc2ccc(C#N)cc2s1)c1ccccc1 (stereo not shown) [Compound 54] the IC50 [1] was over 20 µM.

For Cc1ccc(C(C)C(=O)Nc2nc3ccc(C#N)cc3s2)cc1 (stereo not shown) [Compound 55], the IC50 [1] was at most 20 µM.

Molecule CC(C)(C(=O)Nc1nc2ccc(C#N)cc2s1)c1ccccc1 [Compound 56] has an IC50 [1] of over 20 µM.

With N#Cc1ccc2nc(NC(=O)C3(c4ccccc4)CC3)sc2c1 [Compound 57] the IC50 [1] was over 20 µM.

Molecule N#Cc1cccc(NC(=O)Nc2nc3c(s2)COCC3)c1 [Compound 58] has an IC50 [1] of at most 20 µM.

N#Cc1cccc(NC(=O)Nc2nc3c(s2)CCCC3)c1 [Compound 59] was tested, and the IC50 [1] was at most 20 µM.

N#Cc1cccc(NC(=O)Nc2nc3ccc(C(=O)N4CCOCC4)cc3s2)c1 [Compound 60] was tested, and the IC50 [1] was over 20 µM.

With CC(C)(C)OC(=O)NC1CCc2nc(NC(=O)Nc3cccc(C#N)c3)sc2C1 (stereo not shown) [Compound 61] the IC50 [1] was at most 5 µM.

For CC(C)(C)OC(=O)N[C@@H]1CCc2nc(NC(=O)Nc3cccc(C#N)c3)sc2C1 [Compound 62], the IC50 [1] was at most 5 µM.

CC(C)(C)OC(=O)N[C@H]1CCc2nc(NC(=O)Nc3cccc(C#N)c3)sc2C1 [Compound 63] showed an IC50 [1] of at most 20 µM.

Work on CN(C)C(=O)c1ccc2nc(NC(=O)Nc3cccc(C#N)c3)sc2c1 [Compound 64] yielded an IC50 [1] of over 20 µM.

For CC(=O)N1CCc2nc(NC(=O)Nc3cccc(C#N)c3)sc2C1 [Compound 65], the IC50 [1] was over 20 µM.

With N#Cc1cccc(NC(=O)Nc2nc3ccc(C#N)cc3s2)c1 [Compound 66] the IC50 [1] was at most 5 µM.

Molecule N#Cc1cccc(NC(=O)Nc2nc3c(s2)CC(N)CC3)c1 (stereo not shown) [Compound 67] has an IC50 [1] of at most 20 µM.

COc1cccc(NC(=O)Nc2nc3ccc(C#N)cc3s2)n1 [Compound 68] showed an IC50 [1] of over 20 µM.

CN(C)C1CCc2nc(NC(=O)Nc3cccc(C#N)c3)sc2C1 (stereo not shown) [Compound 69] showed an IC50 [1] of at most 20 µM.

Work on N#Cc1cccc(NC(=O)Nc2nc3ccc(F)cc3s2)c1 [Compound 70] yielded an IC50 [1] of at most 5 µM.

For COc1cc(NC(=O)Nc2nc3ccc(C#N)cc3s2)ccn1 [Compound 71], the IC50 [1] was at most 5 µM.

In the case of N#Cc1cccc(NC(=O)Nc2nc3ccc([N+](=O)[O-])cc3s2)c1 [Compound 72], the IC50 [1] is reported as at most 5 µM.

N#Cc1ccc2nc(NC(=O)NCc3ccccc3)sc2c1 [Compound 73] showed an IC50 [1] of at most 20 µM.

Work on N#Cc1cccc(NC(=O)Nc2nc3ccc(Br)cc3s2)c1 [Compound 74] yielded an IC50 [1] of at most 5 µM.

Work on CC(=O)Nc1ccc2nc(NC(=O)Nc3cccc(C#N)c3)sc2c1 [Compound 75] yielded an IC50 [1] of over 20 µM.

CN(C(=O)Nc1nc2ccc(C#N)cc2s1)c1ccccc1 [Compound 76] showed an IC50 [1] of over 20 µM.

For N#Cc1cccc(NC(=O)Nc2nc3ccc(N)cc3s2)c1 [Compound 77], the IC50 [1] was over 20 µM.

In the case of CCOC(=O)C1CCc2nc(NC(=O)Nc3cccc(C#N)c3)sc2C1 (stereo not shown) [Compound 79], the IC50 [1] is reported as over 20 µM.

For CCOC(=O)C1CCc2nc(NC(=O)Nc3cccc(Cl)c3)sc2C1 (stereo not shown) [Compound 80], the IC50 [1] was over 20 µM.

COc1cncc(NC(=O)Nc2nc3ccc(C#N)cc3s2)c1 [Compound 81] gave an IC50 [1] of over 20 µM.

Work on N#Cc1ccc2nc(NC(=O)Nc3cccc(N4CCOCC4)c3)sc2c1 [Compound 82] yielded an IC50 [1] of at most 20 µM.

CN1CCN(c2cccc(NC(=O)Nc3nc4ccc(C#N)cc4s3)c2)CC1 [Compound 83] was tested, and the IC50 [1] was at most 5 µM.

N#Cc1cc(NC(=O)Nc2nc3ccc(Cl)cc3s2)ccc1Cl [Compound 85] was tested, and the IC50 [1] was at most 5 µM.

Work on N#Cc1ccc(Cl)c(NC(=O)Nc2nc3ccc(Cl)cc3s2)c1 [Compound 86] yielded an IC50 [1] of at most 5 µM.

Molecule N#Cc1cc(NC(=O)Nc2nc3ccc(Cl)cc3s2)ccc1Br [Compound 87] has an IC50 [1] of at most 5 µM.

Molecule Cc1ccc(NC(=O)Nc2nc3ccc(Cl)cc3s2)cc1C#N [Compound 88] has an IC50 [1] of at most 20 µM.

N#Cc1cccc(NC(=O)Nc2nc3c(s2)CC(C(N)=O)CC3)c1 (stereo not shown) [Compound 89] showed an IC50 [1] of over 20 µM.

For NC(=O)C1CCc2nc(NC(=O)Nc3cccc(Cl)c3)sc2C1 (stereo not shown) [Compound 90, 2-[(3-chlorophenyl)carbamoylamino]-4,5,6,7-tetrahydro-1,3-benzothiazole-6-carboxamide], the IC50 [1] was over 20 µM.

In the case of N#Cc1ccc(NC(=O)Nc2nc3ccc(Cl)cc3s2)cc1C#N [Compound 91], the IC50 [1] is reported as at most 5 µM.

N#Cc1cc(NC(=O)Nc2nc3ccc(Cl)cc3s2)ccc1F [Compound 92] gave an IC50 [1] of at most 5 µM.

N#Cc1cc(Cl)cc(NC(=O)Nc2nc3ccc(Cl)cc3s2)c1 [Compound 93] showed an IC50 [1] of at most 5 µM.
